Data taken from patent publication US8354419B2, “Benzimidazole analogues for the treatment or prevention of flavivirus infections” (Vertex Pharmaceuticals Incorporated, priority 2009, dated 2013).

test system: HCV (Ib) RNA replication; test: Cell-based luciferase reporter HCV (1b) RNA replication assay (replicon cell lines Huh-7 5.2 and ET); design: species or system Hepatitis C virus; conditions: HCV 1b genotype replicon, luciferase readout, 4 days incubation; read-out: EC50_1b
Outline: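 Huh-7-derived 5.2 or ET replicon cells carrying a firefly luciferase reporter were seeded at ~3000 cells/well in medium without G418 or phenol red. Compound was added after 3-4 h, followed by 4 days at 37 °C. Luciferase readout was used, with IC50 fitted by nonlinear regression from eleven concentrations in duplicate.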

In the case of COC(=O)NC(C(=O)N1CCCC1c1nc2cc(-c3ccc(-c4ccc5nc(C6CCCN6C(=O)C(NC(=O)OC)C(C)(C)C)[nH]c5c4)cc3)ccc2[nH]1)C(C)(C)C (stereo not shown) [Compound 191], the EC50 is reported as no more than 5 nM.
COC(=O)NC(C(=O)N1CCCC1c1nc2cc(-c3ccc(-c4ccc5nc(C6CCCN6C(=O)C(NC(=O)OC)C(C)(C)C)[nH]c5c4)cc3)ccc2[nH]1)C(C)(C)C (stereo not shown) [Compound 193] gave an EC50 of 5 to 5000 nM.

same assay, conditions: Hepatitis C virus, Huh-7, 96 h, HCV 1b genotype replicon, luciferase readout, 4 days incubation; read-out: EC50_1b

COC(=O)N[C@H](C(=O)N1CCC[C@H]1c1nc2cc(-c3ccc(-c4ccc5[nH]c([C@@H]6CCCN6C(=O)[C@@H](NC(=O)OC)[C@@H](C)OC)nc5c4)cc3)ccc2[nH]1)[C@@H](C)OC [Compound 170] and COC(=O)N[C@@H](C(=O)N1CCC[C@H]1c1nc2cc(-c3ccc(-c4ccc5[nH]c([C@@H]6CCCN6C(=O)[C@H](NC(=O)OC)C(C)C)nc5c4)cc3)ccc2[nH]1)C(C)C [Compound 171] cannot be ordered by EC50: no more than 5 nM for the first, 5 to 5000 nM for the second.

COC(=O)N[C@H](C(=O)N1CCC[C@H]1c1nc2cc(-c3ccc(-c4ccc5nc([C@@H]6CCCN6C(=O)[C@@H](NC(=O)OC)C(C)C)[nH]c5c4)c4c3OCCO4)ccc2[nH]1)C(C)C [Compound 172] and [2H]C1([2H])Oc2c(-c3ccc4[nH]c([C@@H]5CCCN5C(=O)[C@@H](NC(=O)OC)C(C)C)nc4c3)ccc(-c3ccc4[nH]c([C@@H]5CCCN5C(=O)[C@@H](NC(=O)OC)C(C)C)nc4c3)c2O1 [Compound 194] cannot be ordered by EC50: no more than 5 nM for the first, no more than 5 nM for the second.

COC(=O)N[C@H](C(=O)N1CCC[C@H]1c1nc2cc(-c3ccc(-c4ccc5nc([C@@H]6CCCN6C(=O)[C@@H](NC(=O)OC)C(C)C)[nH]c5c4)c4ocnc34)ccc2[nH]1)C(C)C [Compound 173] and COC(=O)N[C@H](C(=O)N1CCC[C@H]1c1nc2cc(-c3ccc(-c4ccc5nc([C@@H]6CCCN6C(=O)[C@@H](NC(=O)OC)[C@@H](C)OC)[nH]c5c4)c4ncoc34)ccc2[nH]1)[C@@H](C)OC [Compound 188] cannot be ordered by EC50: no more than 5 nM for the first, no more than 5 nM for the second.

COC(=O)N[C@H](C(=O)N1C[C@H](OC)C[C@H]1c1nc2cc(-c3ccc(-c4ccc5[nH]c([C@@H]6C[C@@H](OC)CN6C(=O)[C@@H](NC(=O)OC)C(C)C)nc5c4)cc3)ccc2[nH]1)C(C)C [Compound 174] and COC(=O)N[C@H](C(=O)N1C[C@@H](C)C[C@H]1c1nc2cc(-c3ccc(-c4ccc5[nH]c([C@@H]6C[C@H](C)CN6C(=O)[C@@H](NC(=O)OC)C(C)C)nc5c4)cc3)ccc2[nH]1)C(C)C [Compound 186] cannot be ordered by EC50: no more than 5 nM for the first, no more than 5 nM for the second.

COC(=O)N[C@H](C(=O)N1CCC[C@H]1c1nc2cc(-c3cnc(-c4ccc5[nH]c([C@@H]6CCCN6C(=O)[C@@H](NC(=O)OC)C(C)C)nc5c4)s3)ccc2[nH]1)C(C)C [Compound 176] and COC(=O)N[C@H](C(=O)N1CCC[C@H]1c1nc2cc(-c3nnc(-c4ccc5[nH]c([C@@H]6CCCN6C(=O)[C@@H](NC(=O)OC)C(C)C)nc5c4)s3)ccc2[nH]1)C(C)C [Compound 184] cannot be ordered by EC50: 5 to 5000 nM for the first, no more than 5 nM for the second.

COC(=O)N[C@H](C(=O)N1CCC[C@H]1c1nc2cc(-c3ccc(-c4ccc5nc([C@@H]6CCCN6C(=O)[C@@H](NC(=O)OC)C(C)C)[nH]c5c4)cc3C(F)(F)F)ccc2[nH]1)C(C)C [Compound 177] and COC(=O)N[C@H](C(=O)N1CCC[C@H]1c1nc2cc(-c3ccc(-c4ccc5nc([C@@H]6CCCN6C(=O)[C@@H](NC(=O)OC)C(C)C)[nH]c5c4)cc3C(=O)O)ccc2[nH]1)C(C)C [Compound 198] cannot be ordered by EC50: no more than 5 nM for the first, no more than 5 nM for the second.

CCOC(=O)N[C@H](C(=O)N1CCC[C@H]1c1nc2cc(-c3ccc(-c4ccc5[nH]c([C@@H]6CCCN6C(=O)[C@@H](NC(=O)OCC)C(C)C)nc5c4)cc3)ccc2[nH]1)C(C)C [Compound 178] and COC(=O)N[C@H](C(=O)N1CCC[C@H]1c1nc2cc(-c3ccc(-c4ccc5[nH]c([C@@H]6CC(F)(F)CN6C(=O)[C@@H](NC(=O)OC)C(C)C)nc5c4)cc3)ccc2[nH]1)C(C)C [Compound 187] cannot be ordered by EC50: no more than 5 nM for the first, no more than 5 nM for the second.

COC(=O)NC(C(=O)N1CCCC1c1nc2cc(-c3ccc(-c4ccc5[nH]c([C@@H]6CCCN6C(=O)C(NC(=O)OC)C(C)(C)F)nc5c4)cc3)ccc2[nH]1)C(C)(C)F (stereo partly shown) [Compound 179] and COC(=O)NC(C(=O)N1CCC[C@H]1c1nc2cc(-c3ccc(-c4ccc5[nH]c([C@@H]6CCCN6C(=O)C(NC(=O)OC)C(C)(C)F)nc5c4)cc3)ccc2[nH]1)C(C)(C)F (stereo partly shown) [Compound 180] cannot be ordered by EC50: no more than 5 nM for the first, no more than 5 nM for the second.

COC(=O)N[C@H](C(=O)N1CCC[C@H]1c1nc2cc(-c3ccc(-c4ccc5nc([C@@H]6CCCN6C(=O)[C@@H](NC(=O)OC)C(C)C)[nH]c5c4)cc3C(=O)OC)ccc2[nH]1)C(C)C [Compound 181] and COC(=O)N[C@H](C(=O)N1CCC[C@H]1c1nc2cc(-c3c[nH]c(-c4ccc5nc([C@@H]6CCCN6C(=O)[C@@H](NC(=O)OC)C(C)C)[nH]c5c4)n3)ccc2[nH]1)C(C)C [Compound 202] cannot be ordered by EC50: no more than 5 nM for the first, 5 to 5000 nM for the second.

COC(=O)N(C)[C@H](C(=O)N1CCC[C@H]1c1nc2cc(-c3ccc(-c4ccc5nc([C@@H]6CCCN6C(=O)[C@H](C(C)C)N(C)C(=O)OC)[nH]c5c4)c4c3OCO4)ccc2[nH]1)C(C)C [Compound 182] and COC(=O)N[C@H](C(=O)N1CCC[C@H]1c1nc2cc(-c3ccc(-c4ccc5nc([C@@H]6CCCN6C(=O)[C@@H](NC(=O)OC)[C@@H](C)OC)[nH]c5c4)c4c3OCO4)ccc2[nH]1)[C@@H](C)OC [Compound 185] cannot be ordered by EC50: no more than 5 nM for the first, no more than 5 nM for the second.

CC(C)[C@H](NC(=O)OC(C)(C)C)C(=O)N1CCC[C@H]1c1nc2ccc(-c3ccc(-c4ccc5nc([C@@H]6CCCN6C(=O)[C@@H](NC(=O)OC(C)(C)C)C(C)C)[nH]c5c4)cc3)cc2[nH]1 [Compound 189] and COCC(=O)N[C@H](C(=O)N1CCC[C@H]1c1nc2ccc(-c3ccc(-c4ccc5nc([C@@H]6CCCN6C(=O)[C@@H](NC(=O)COC)C(C)C)[nH]c5c4)cc3)cc2[nH]1)C(C)C [Compound 196] fall in the same range of EC50: 5 to 5000 nM for the first, 5 to 5000 nM for the second.

COC(=O)NC(C(=O)N1CCCC1c1nc2cc(-c3ccc(-c4ccc5nc(C6CCCN6C(=O)C(NC(=O)OC)C(C)(C)C)[nH]c5c4)cc3)ccc2[nH]1)C(C)(C)C (stereo not shown) [Compound 190] and COC(=O)N[C@H](CN1CCC[C@H]1c1nc2cc(-c3ccc(-c4ccc5[nH]c([C@@H]6CCCN6C[C@@H](NC(=O)OC)C(C)C)nc5c4)cc3)ccc2[nH]1)C(C)C [Compound 195] cannot be ordered by EC50: no more than 5 nM for the first, 5 to 5000 nM for the second.

c1cc(-c2ccc3[nH]c([C@@H]4CCCN4CCC4CCOCC4)nc3c2)ccc1-c1ccc2[nH]c(C3CCCN3CCC3CCOCC3)nc2c1 (stereo partly shown) [Compound 192] and CC(C)[C@H](N)C(=O)N1CCC[C@H]1c1nc2ccc(-c3ccc(-c4ccc5nc([C@@H]6CCCN6C(=O)[C@@H](N)C(C)C)[nH]c5c4)cc3)cc2[nH]1 [Compound 197] fall in the same range of EC50: 5 to 5000 nM for the first, 5 to 5000 nM for the second.

COC(=O)N[C@H](C(=O)N1CCC[C@H]1c1nc2cc(-c3cc4sc(-c5ccc6nc([C@@H]7CCCN7C(=O)[C@@H](NC(=O)OC)[C@@H](C)OC)[nH]c6c5)cc4s3)ccc2[nH]1)[C@@H](C)OC [Compound 199] and COC(=O)N[C@H](C(=O)N1CCC[C@H]1c1nc2ccc(-c3cnc(-c4ccc5nc([C@@H]6CCCN6C(=O)[C@@H](NC(=O)OC)C(C)C)[nH]c5c4)n3C)cc2[nH]1)C(C)C [Compound 200] cannot be ordered by EC50: no more than 5 nM for the first, 5 to 5000 nM for the second.

COC(=O)NC(C(=O)N1CCC[C@H]1c1nc2ccc(-c3cnc(-c4cnc(-c5ccc6nc([C@@H]7CCCN7C(=O)[C@@H](NC(=O)OC)C(C)C)[nH]c6c5)n4C)n3C)cc2[nH]1)C(C)C (stereo partly shown) [Compound 201] was tested, and the EC50 was no more than 5 nM.
